Columns and labels:
[1] = tested on: HEK 293T cells; assay: Acetyl-CoA level in HEK 293T cells by mass spectrometry; assay type: cell-based, human; settings: 200 μM compound, p<0.0005
Experimental: FIG. 1 is a bar graph showing the levels of acetyl CoA in human HEK 293T cells, as measured by mass spectrometry, following treatment with the compounds of Examples 2, 5, 7 and 12.
The compounds of Examples 2, 5, 7 and 12 were tested in immortalized human cells (HEK 293T). The amount of acetyl-CoA (the downstream result of PANK) following administration of the compounds of Examples 2, 5, 7 and 12 were measured by mass spectrometry.
Treatment of HEK 293T cells with 20 μM of the compound of Example 7 afforded a 38% increase in acetyl CoA over baseline (p<0.005).

[2] = tested on: Escherichia coli K-12 strain SJ16; assay: SJ16 recovery (in vitro bacterial testing, growth without pantothenate); assay type: cell-based; settings: test compound 8 μM in growth medium, 37° C., 18 hours, solid medium without calcium pantothenate (non-permissive)
Experimental: Thus, it serves as a useful assay in determining whether a compound can rescue an organism deficient in PANK, the cause of PKAN. Compounds of the present invention were tested for toxicity and for the ability to support growth of Escherichia coli K-12 strains SJ16 (see, e.g., Jackowski et al., J. Bacteriol., 148, 926-932, 1981) and DV70 (see, e.g., Vallari et al., J. Bacteriol., 169, 5795-5800, 1987) under permissive and non-permissive conditions. The test compound in a solvent (dimethylsulfoxide, DMSO) was added to growth medium at a final concentration of 8 μM. Solvent alone (DMSO) was added to the growth medium at a final concentration ≦0.1% as a control.
Strain SJ16 was grown at 37° C. for 18 hours on a solid medium containing agar (1.5%), M9 minimal essential salts (see, Miller, Experiments in Molecular Genetics. Cold Spring Harbor Laboratory, Cold Spring Harbor, N.Y., 1972), glucose (0.4%), methionine (50 μg/ml), and with (permissive) or without (non-permissive) calcium pantothenate (1 μM). Lack of growth with calcium pantothenate supplementation indicated toxicity. Growth without calcium pantothenate supplementation indicated the ability of the bacteria to metabolize the compound to yield pantothenate or β-alanine.

[3] = tested on: Pank1−/− mice; assay: Liver Coenzyme A (mBBr-CoA, HPLC) in Pank1−/− mice; assay type: in vivo
Experimental: Compounds of the invention were tested for efficacy in Pank1^−/− mice (strain 129SvJ×C57BL/6J background) which were compared with age-matched Pank1^+/+ (strain 129SvJ×C57BL/6J) littermates, ages 8-12 weeks. Each mouse was identified with a coded ear tag and weighed on the first day of testing. Each compound was administered to 4-5 mice by intraperitoneal injection at a dose of 1.2 μmoles/g body weight in 5 μL dimethylsulfoxide once daily for 5 days, and mice were then fasted overnight, weighed and euthanized. Untreated mice received 5 μL dimethylsulfoxide once daily for 5 days and then were fasted overnight prior to weighing and euthanasia. Livers were excised from each mouse, aliquots were snap-frozen in liquid nitrogen, and stored at −80° C. Within 7 days, liver samples were thawed on ice, weighed and analyzed for coenzyme A content as described below. Efficacy was indicated by a statistically significant increase in the liver Coenzyme A levels in the Pank1^−/− mice as compared to the liver from untreated Pank1^−/− mice and by equivalence in comparison with Coenzyme A levels in untreated Pank1^+/+ mice.
CoA Measurements: Extraction of Fibroblasts and Liver and Derivatization of Coenzyme A Prior to High Pressure Liquid Chromatography (HPLC) […]
Coenzyme A Quantification by HPLC […]

COC(=O)CCNC(=O)[C@H](O)C(C)(C)COP(=O)(N[C@@H](C)C(=O)OC)Oc1ccccc1 (stereo partly drawn) [Example 2, methyl 3-((2R)-2-hydroxy-4-(((((S)-1-methoxy-1-oxopropan-2-yl)amino)(phenoxy)phosphoryl)oxy)-3,3-dimethylbutanamido)propanoate]
increase in acetyl CoA over baseline [1]: 42% | SJ16 Recovery [2]: Yes | levels of CoA in PANK knockout mice (in words) ([3]; PANK knockout mice, liver mBBr CoA, FIG. 2, compared with normal mice): restored levels of CoA to those seen in normal mice | pmol mBBR-CoA/mg Liver, Mean ([3]; pank1 KO mice, intraperitoneal 1.2 μmoles/g body weight once daily for 5 days, fasted overnight, liver, n=5): 563.358 pmol mBBR-CoA/mg Liver

From US9181286B2, “Pantothenate derivatives for the treatment of neurologic disorders” (Retrophin, Inc., priority 2012, dated 2015)
